Assay results reported in paper PMC7402176, “Highlighting the Biological Potential of the Brown Seaweed Fucus spiralis for Skin Applications” (Antioxidants, 2020).

Target: T1, collagenase
T1 construct: gene colG; commercial kit enzyme (EnzChek Gelatinase/Collagenase Assay Kit); native bacterial preparation, usually a mixture of collagenases
Experiment: fluorescence assay, fluorescein-conjugate gelatin cleavage
Assay type: biochemical
Details: positive control; EnzChek kit
Source text: fluorescence assay, fluorescein-conjugate gelatin cleavage on collagenase

For `O=C(O[C@@H]1Cc2c(O)cc(O)cc2O[C@@H]1c1cc(O)c(O)c(O)c1)c1cc(O)c(O)c(O)c1` [(−)-Epigallocatechin gallate], the Collagenase was 4.8 (4.1–5.5) µg/mL.
